Experimental data taken from patent US20060106107A1, “L-tartrate salt of N-1-Adamantyl-2-{3-[(2R)-2-({(2R)-2-hydroxy-2-[4-hydroxy-3-(hydroxymethyl)phenyl]ethyl}amino)propyl] phenyl}acetamide” (priority 2004, published 2006).

Molecular target: T1, human β2 adrenergic receptor (Homo sapiens, UniProt P07550)
T1 construct: expressed in transfected cells; host or cells: CHO (Chinese Hamster Ovary) cells, CHOhβ2
Assay: cAMP Flashplate assay in CHO cells recombinantly expressing the human β2 adrenergic receptor (agonist potency)
Assay type: cell-based
Details: CHOhβ2 cells, 1 hour incubation, 125I-cAMP Flashplate; data expressed as % Isoprenaline activity, four parameter sigmoid fit
Experimental: According to another alternative, the agonist potency for the β2 receptor of the L-tartrate salt of the invention may also be determined by the measure of the concentration of compound according to the present invention required to produce half maximal effect (EC50) for the β2 receptor.
10 mM/100% DMSO (dimethylsulfoxide) stock of compound is diluted to required top dose in 4% DMSO. This top dose is used to construct a 10-point semi-log dilution curve, all in 4% DMSO. Isoprenaline (Sigma, I-5627) was used as a standard in every experiment and for control wells on each plate. Data was expressed as % Isoprenaline response. […]
25 μl/well each dose of compound was transferred into a cAMP-Flashplate® (NEN, SMP004B), with 1% DMSO as basal controls and 100 nM Isoprenaline as max controls. […] The amount of ^125I-cAMP bound to the Flashplate® was quantified using a Topcount NXT (Packard), normal counting efficiency for 1 minute. Dose-response data was expressed as % Isoprenaline activity and fitted using a four parameter sigmoid fit.

T1 sequence (P07550 whole entry): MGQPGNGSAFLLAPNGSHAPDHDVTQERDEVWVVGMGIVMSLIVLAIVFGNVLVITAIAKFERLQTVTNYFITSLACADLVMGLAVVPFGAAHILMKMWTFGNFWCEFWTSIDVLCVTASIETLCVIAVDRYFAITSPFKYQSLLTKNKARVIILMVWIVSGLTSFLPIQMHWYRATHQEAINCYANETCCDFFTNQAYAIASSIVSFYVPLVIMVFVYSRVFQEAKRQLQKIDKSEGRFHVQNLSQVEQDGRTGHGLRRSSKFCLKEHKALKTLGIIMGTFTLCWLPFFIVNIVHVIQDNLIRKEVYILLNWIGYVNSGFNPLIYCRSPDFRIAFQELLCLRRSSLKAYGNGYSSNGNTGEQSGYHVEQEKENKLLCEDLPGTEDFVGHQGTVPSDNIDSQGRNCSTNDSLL

EC50: 0.076 nM
SMILES: C[C@H](Cc1cccc(CC(=O)NC23CC4CC(CC(C4)C2)C3)c1)NC[C@H](O)c1ccc(O)c(CO)c1 [example 1, N-1-Adamantyl-2-{3-[(2R)-2-({(2R)-2-hydroxy-2-[4-hydroxy-3-(hydroxymethyl)phenyl]ethyl}amino)propyl]phenyl}acetamide L-tartrate]
